System: GFP-positive MPL^W515L cells
Experiment: MPL^W515L MF mouse model Study 2: GFP-positive cell frequencies
Format: in vivo
Settings: Study 2, MPL^W515L mice, oral 400 mg kg^−1 daily, 14 d
Method: The human megakaryoblastic cell line, SET-2 (ATCC), was maintained in RPMI 1640 supplemented with 20% FBS and incubated for 16 h at 10^6 cells mL^−1 with LP-182 or vehicle (DMSO; dimethyl sulfoxide), then washed in ice-cold PBS, and collected for flow cytometry analysis. Single-cell suspensions of mouse spleen were prepared from MPL^W515L MF mice (below) in RPMI 1640 supplemented with 5% FCS. Red blood cells were lysed by ammonium chloride-mediated red cell lysis (RCL) buffer and passed through a nylon mesh, and then cells were counted. For intracellular phospho-protein staining, SET-2 or spleen cells were fixed and then permeabilized using BD Phospho-flow fixation buffer and Perm-Buffer III (BD biosciences) according to the manufacturer’s protocol. Intracellular phospho-protein staining was performed using fluorochrome-conjugated antibodies, pAKT (pS473)-Alexa Fluor 647 (MB89-61) or pERK1/2 (pT202/pY204)-Alexa Fluor 647 (20 A). […] Flow cytometry was performed on a FACS Fortessa (Becton, Dickinson and Co.) using FACSDiVa software, and data analyzed using FlowJo software (Tree Star). […]
Generation of the MPL^W515L mutant MF mouse model was similar to previously described methods. […] Development of MF was evaluated by spleen volumes using MRI beginning ~14 d following bone marrow transplantation (BMT) as outlined below, continuing weekly until end of the study. […]

O=C(NOCCOCCOCCOCCC(=O)N1CCN(c2cnc3ccc(-c4cnc(Cl)c(NS(=O)(=O)c5ccc(F)cc5)c4)cc3n2)CC1)c1ccc(F)c(F)c1Nc1ccc(I)cc1F [LP-182, N-(2-(2-(2-(3-(4-(7-(6-chloro-5-((4-fluorophenyl)sulfonamido)pyridin-3-yl)quinoxalin-2-yl)piperazin-1-yl)-3-oxopropoxy)ethoxy)ethoxy)ethoxy)-3,4-difluoro-2-((2-fluoro-4-iodophenyl)amino)benzamide]
GFP-positive MPL^W515L neutrophil frequency: reduced

Source: publication PMC9386018, “A lymphatic-absorbed multi-targeted kinase inhibitor for myelofibrosis therapy” (Nature Communications, 2022)
